The results in this text go back to patent US20230202997A1, “CHROMANOL, QUINONE OR HYDROQUINONE COMPOUNDS FOR TREATMENT OF SEPSIS” (Sulfateq B.V., priority 2020, published 2023).

The test system of assay [1] is NO production in RAW264.7 macrophages. Description: Macrophage NO production (nitrate in conditioned medium), basal and after LPS. The format is cell-based, Mouse. The procedure:
Mouse macrophage RAW264.7 cells (ATCC #TIB-71) were maintained in DMEM medium containing 10% fetal bovine serum, and 1% Penicillin-Streptomycin solution (Sigma-Aldrich). […] For all experiments, RAW264.7 cells were seeded at 0.5·10^5 cells/cm^2 and allowed to adhere for 24 hours. Cellular production of NO was approximated by measuring nitrate concentrations in culture media using the Measure-IT™ High-Sensitivity Nitrite Assay Kit (#M36051, ThermoFisher) according to manufacturer's instructions. […] Therefore, nitrate concentrations in conditioned media are a good approximate to assess cellular NO production. 50 μl conditioned medium derived from a single 96-wells plate well was used per assay and normalized against protein concentration. All experiments were performed in quadruplicate. LPS induces macrophage NO production by activating iNOS. RAW264.7 macrophages were pre-treated with vehicle (DMSO), BN-80933, SUL-138, or SUL-150 or (all 10 μM) prior to endotoxin (LPS 100 ng/ml) exposure for 24 hours. The nitrate levels in the conditioned medium from LPS exposed RAW264.7 macrophages averaged at 83 pmol/mg protein (˜16-fold increase versus non-exposed RAW264.7 cells, p=0.001).

For assay [2], the system named is IL-1β mRNA expression. Description: Inhibition of LPS-induced IL-1β mRNA expression in NRK52E. The format is cell-based, Rat. The conditions noted are these: 10 μM for 30 min, then LPS 24 hours. The procedure:
Rat kidney epithelial cells (ATCC #CRL-1571) were maintained in DMEM medium containing 10% fetal bovine serum, and 1% Penicillin-Streptomycin solution (Sigma-Aldrich). NRK52E cells were passaged by trypsinization when the cultures reached a confluency of 70%. For all experiments, NRK52E cells were seeded at 0.6·10^5 cells/cm^2 and allowed to adhere for 24 hours.
(§1) HUVEC and NRK52E cells were pre-incubated with SUL compounds (10 μM) for 30 min and subsequently exposed to LPS for 24 hours under standard culture conditions. Cells were lysed in triZOL reagens (Invitrogen) and total RNA isolated according to manufacturers' instruction. 1 μg total RNA per sample was reverse transcribed using the FirstAid Reverse Transcription Kit (ThermoFisher). Copy-DNA equivalents of 5 ng total RNA were amplified on a ViiA7 Real-time PCR system (ThermoFisher, Waltham, Mass.) using iTaq Universal SYBR Green Supermix (Bio-Rad, Hercules, Calif.) and primers specific for tumor necrosis factor alpha, interleukin 1 beta, interleukin-6 and beta actin as loading control. Amplification was performed for 40 cycles of 95° C. for 30 s, 60° C. for 1 min. Relative mRNA expression was calculated as 2^−(Cq^gene^−Cq^reference^) and normalized to unstimulated control cells (100% inhibition) and vehicle-treated and LPS exposed cells (0% inhibition). The following primers were used: […]

The test system of assay [3] is IL-1β mRNA expression. Description: Endothelial inflammatory activation after endotoxin, IL-1β mRNA (Example 5). The format is cell-based, Human. The settings on record: HUVEC; 10 μM for 30 min. Here is the method: (§2) Human Umbilical Cord Endothelial Cells (HUVEC, Lonza CC-2519) were maintained on 1% gelatin-coated culture flasks in RPMI1640 medium containing 20% fetal bovine serum, 2 mM Glutamine (Sigma-Aldrich), 1% Penicillin-Streptomycin solution (Sigma-Aldrich) and 50 μg/ml Bovine Pituitary Extract (Invitrogen). HUVEC were passaged by trypsinization when the cultures reach a confluency of 70%. For all experiments, HUVEC were seeded at 0.6·10^5 cells/cm^2 and allowed to adhere for 24 hours.
HUVEC cells were lysed in triZOL reagens (Invitrogen) and total RNA isolated according to manufacturers' instruction. 1 μg total RNA per sample was reverse transcribed using the FirstAid Reverse Transcription Kit (ThermoFisher). Copy-DNA equivalents of 5 ng total RNA were amplified on a ViiA7 Real-time PCR system (ThermoFisher, Waltham, Mass.) using iTaq Universal SYBR Green Supermix (Bio-Rad, Hercules, Calif.) and primers specific for tumor necrosis factor alpha (TNFα; sense 5′-[…]-3′, antisense 5′-[…]-3′), interleukin 1 beta (IL-1β; sense 5′-[…]-3′, antisense 5′-[…]-3′), interleukin-6 (IL-6; sense 5′-[…]-3′, antisense 5′-[…]-3′) and beta actin (ACTB; sense 5′-[…]-3′, antisense 5′-[…]-3′) as loading control. Amplification was performed for 40 cycles of 95° C. for 30 s, 60° C. for 1 min. Relative mRNA expression was calculated according to the δδCt-method.

The next assay has as its system TNFα mRNA expression. Description: Inhibition of LPS-induced TNFα mRNA expression in HUVEC. The format is cell-based, Human. The conditions noted are these: 10 μM for 30 min, then LPS 24 hours. Here is the method:
as §2, §1

In the next assay the test system is HUVEC. Description: Cell viability after hypothermia-rewarming stress (Neutral Red). The settings on record: 10 μM for 1 hour, 4° C. for 24 hours followed by 37° C. for 3 hours. The format is cell-based, Human. Here is the method:
as §2
HUVEC were pre-treated with BN-80933, SUL-138 or SUL-150 (all 10 μM) for 1 hour in a humidified incubator at 37° C. Following pre-treatment, HUVEC were placed in a cold room (2-8° C.) for 24 hours and subsequently placed back at 37° C. for a 3 hour rewarming period. After 1 hour of rewarming, cell culture medium was replaced by prewarmed and filtered 0.4 mg/mL Neutral Red (#N463 8, Sigma-Aldrich) in culture medium. After the remaining 2 hour rewarming period, HUVEC were washed with PBS and NRU was solubilized in 100 μL resorption solution (50% ethanol, 1% ascetic acid in dH2O). The absorbance was measured at a wavelength of 550 nm on a BioTek ELx808 plate reader. The recorded OD550 nm values were normalized to control samples that were maintained at 37° C. at all times, which were assumed to be 100% viable.

Assay [4] deals with cytoplasmic oxidative stress in HUVEC. Description: LPS-induced cellular superoxide in HUVEC (DHE). The conditions noted are these: 10 μM for 30 min, LPS 100 ng/ml 24 hours. The format is cell-based, Human. The procedure:
as §2
(§3) The production of cellular and mitochondrial oxidative stress was measured using fluorescent probes for cellular and mitochondrial superoxide, i.e. dihydroethidium (DHE) and MitoSox (ThermoFisher), respectively. HUVEC were incubated with BN-80933, SUL-138 or SUL-150 (all 10 μM) for 30 min. Next, HUVEC were exposed to LPS (100 ng/ml) for an additional 24 hours. In the final hour of incubation, 2.5 μM of DHE or MitoSox was applied to each sample. HUVEC were washed in PBS and fixed in 4% paraformaldehyde at room temperature for 15 min. Nuclear staining was performed by 5 μM […] (DAPI) and fluorescence intensity of the samples was recorded in a CLARIOStar Plus plate reader (BMG Labtech) equipped with the appropriate filter sets. Fluorescence recordings for DHE and MitoSox were corrected for DAPI fluorescence. All experiments were performed in quadruplicate.

Assay [5] relates to mitochondrial oxidative stress in HUVEC. Description: LPS-induced mitochondrial superoxide in HUVEC (MitoSox). The assay is classed as cell-based, Human. The settings on record: 10 μM for 30 min, LPS 100 ng/ml 24 hours. The procedure:
as §2, §3

SMILES strings stand for the structures.

In the case of `Cc1c(C)c2c(c(C)c1O)CC[C@@](C)(C(=O)N1CCN(CCO)CC1)O2` [SUL-138, (S)-(6-hydroxy-2,5,7,8-tetramethylchroman-2-yl)(4-(2-hydroxyethyl)piperazin-1-yl)methanone], the “LPS-induced increase in extracellular nitrate level” value in assay [1] (10 μM pre-treatment, LPS 100 ng/ml for 24 hours) is reported as “Neither SUL-138 nor SUL-150 strongly suppressed the LPS-induced increase in nitrate production”. Also, in assay [1] (no LPS, 10 μM), the “basal production of extracellular nitrate” value is recorded as “Neither BN-80933, SUL-138, nor SUL-150 affected the basal production of extracellular nitrate”. Also, the “inhibition of LPS-induced mRNA expression of IL-1β” value in the assay with IL-1β mRNA expression [2] is listed as 65.2 ± 8.9 %. Besides, the “LPS-induced mRNA expression of IL-1β” value in the assay on IL-1β mRNA expression [3] was “precluded the LPS-induced increase in IL-1β and IL-6”. The “inhibition of LPS-induced mRNA expression of TNFα” value with TNFα mRNA expression is on record as 81.4 ± 4.5 %. Further, the “reduction in cell viability versus normothermic control cells” value with HUVEC was around 15%. The “LPS-induced cytoplasmic oxidative stress (DHE)” value in assay [4] is reported as “mitigates the induction of cytoplasmic oxidative stress”. Also, the “LPS-induced mitochondrial oxidative stress (MitoSox)” value in assay [5] was “precluded the LPS-induced increase in mitochondrial oxidative stress”.
